Measurements: patent US20100278849A1, “PROSTATIC ACID PHOSPHATASE ANTIGENS” (priority 2004, published 2010)
Values joined by “and” are separate entries in the source; they are usually repeats but may differ in a detail not shown here. Equal values may be shown once. “Also recorded” adds a separate entry of the source.

Legend:
IFN-γ [1] = assay: IFN-γ ELISPOT of rested CD8-depleted T cells with peptide-pulsed BM-DC; assay type: cell-based, mice; conditions: BM-DC pulsed with PAP.161 versus Flu peptide
IFN-γ [2] = assay: Cytokine production by splenocytes of immunised FVB/N-DR1 mice, ELISA; assay type: cell-based
Description: (§1) After 6 days, the spleens from immunised animals were collected and the cells flushed out using T cell media (RPMI+10% FCS+20 mM HEPES buffer+50 μM 2-mercaptoethanol+50 U/ml penicillin/streptomycin+0.25 μg/ml fungizone). The remaining splenic tissue was digested using an enzyme cocktail (0.1 U/ml DNAase (Sigma)+1.6 mg/ml collagenase (Sigma)) for 1 hour at 37° C. The cell suspension obtained was pooled with the flushed cells, washed once, and the splenocytes were plated in 24 well plates with 10 μg/ml of peptide at a density of 2.5×10^6/ml for FVB/N-DR1 or 3.5×10^6/ml for C57BL/6-DR4. Cells were also cultured with an irrelevant peptide as a control. To measure cytokine production, culture supernatants were collected on day 2 and 5 of the culture for the measurement of cytokine by ELISA.
(§2) Aliquots of supernatants were removed from CTL cultures on days 1 and 5 and on days 2 and 5 from CD4′ T cell cultures and stored at −20° C. until required. ELISA was used to quantitate concentrations of murine IFN-γ and IL-5 (R&D systems, UK).

HLA-DRβ1*0101 = assay: Proliferation of splenocytes from immunised HLA-DR1 mice with peptide-pulsed BM-DC (tritiated thymidine); assay type: cell-based; conditions: responding/total mice, after re-stimulation in vitro with relevant peptide
Description: (§3) HLA-A2.1/K^b mice were immunised with an emulsion consisting of 100 μg of the putative class-I peptide epitope and 100 μg of non-specific class-II peptide derived from hepatitis B virus in 50% incomplete Freund's adjuvant (IFA). HLA-DR4- and HLA-DR1-transgenic mice were immunised twice at one week interval with 100 μg of class-II peptide emulsified in 50% incomplete Freund's adjuvant (IFA) and 50% PBS. All vaccine were delivered as a 100 μl intradermal bolus inoculum at the base of the tail.
(§4) 0DC were generated using a method adapted from Inaba et al (Inaba et al. 1992). Briefly, femurs and tibias were harvested aseptically from non-immunised DR1 or DR4 transgenic mice and placed in sterile PBS supplemented with 50 IU/ml penicillin, 50 μg/ml streptomycin, and 0.25 μg/ml fungizone. The marrow was flushed out of the bone using BM-DC media (RPMI 1640 medium supplemented with 2 mM glutamine, 5% FCS, 10 mM Hepes, 501M 2-ME, 50 μg/ml penicillin, 50 μg/ml streptomycin, 0.25 μg/ml fungisone and 10% of supernatant collected from X-63 cells). The cells were washed once in BM-DC media and plated in 24-well plates at 10^6/well in 1 ml DC media and incubated at 37° C. in a 5% CO2 humidified atmosphere. On days 2 and 4, the non-adherent cells (T cells, B cells, granulocytes) were removed, and the remaining cells were cultured in fresh DC medium. After 7-9 days, clusters of loosely adherent DC were dislodged and collected by gently pipetting, before being washed and seeded in 24-well plates at 0.5×10^6 cells/well in 1 ml DC media. Peptides were added at 1 μg/well and the plates were incubated at 37° C. 1 μg/ml of LPS was added after 5 hours, and the plates were incubated overnight at 37° C. in a 5% CO2 in air-humidified atmosphere.
as §1
Splenocytes from immunised animals cultured for 6 days in the presence of 10 μg of the test peptide were harvested, washed and counted. CD8+ T cells were depleted from the cell suspension using anti-CD8+ antibody coupled with magnetic beads (Dynal, UK) as per the manufacturers instructions. Cells were then washed in PBS and resuspended at 5×10^5/ml in T cell medium. 100 μl of T cells was then added to all wells. Anti-DR antibody (L243) or isotype control were added to some wells to confirm the MHC specificity of the T-cell response. LPS-treated dendritic cells were harvested, washed and incubated in 1 ml of DC medium with the addition of 10 íg of peptide at 37° C. for 5 hours. After washing, 10^3 peptide-pulsed DC were added to the relevant wells of lymphocyte cultures in 50 íl media. […] Plates were harvested onto 96 Uni/Filter (Packard), the scintillation liquid (Microscint 0, Packard) was added and the plates were counted on a Top-Count counter (Packard). […]

HLA-DRβ1*0401 = assay: Proliferation of splenocytes from immunised HLA-DR4 mice with peptide-pulsed BM-DC (tritiated thymidine); assay type: cell-based
Description: as §3, §4, §1
[…] CD8+ T cells were depleted from the cell suspension using anti-CD8+ antibody coupled with magnetic beads (Dynal, UK) as per the manufacturers instructions. Cells were then washed in PBS and resuspended at 5×10^5/ml in T cell medium. 100 μl of T cells was then added to all wells. Anti-DR antibody (L243) or isotype control were added to some wells to confirm the MHC specificity of the T-cell response. LPS-treated dendritic cells were harvested, washed and incubated in 1 ml of DC medium with the addition of 10 íg of peptide at 37° C. for 5 hours. After washing, 10^3 peptide-pulsed DC were added to the relevant wells of lymphocyte cultures in 50 íl media. These plates were then incubated for 3 days at 37° C. in a 5% CO2 in air-humidified atmosphere. Tritriated thymidine was then added to the culture and incubated again for 18 hours. Plates were harvested onto 96 Uni/Filter (Packard), the scintillation liquid (Microscint 0, Packard) was added and the plates were counted on a Top-Count counter (Packard). Results are expressed in counts per minute (cpm) and as a means of the triplicate wells. Statistical analysis was performed using unpaired Student's t test. […]

IFN-γ [3] = assay: Cytokine production by splenocytes of immunised C57BL/6-DR4 mice, ELISA; assay type: cell-based; conditions: relevant versus irrelevant peptide
Description: as §1, §2
We further investigated HLA-DR class-II restricted responses to PAP peptides that were predicted to bind to HLA-DR1 and HLA-DR4 according to the evidence-based computer assisted algorithm […]. The peptides displaying high binding scores for both HLA-DR alleles were selected and further studied (Table 1). C57BL/6-DR4 mice were immunised with these predicted HLA-DR-restricted PAP and the proliferative and IFN-γ response to peptide stimulation in vitro was monitored by proliferation assays and cytokine measurements. PAP. 64 and PAP.

RMAS-HLA-A2 cells = assay: 51Chromium cytotoxicity assay of splenocytes from HLA-A2.1/Kb mice against peptide-pulsed RMAS cells; assay type: cell-based; conditions: for % cytoxicity at 50:1 ratio RMAS + irrel.: targets pulsed with irrelevant peptide
HLA-A2*0201 = HLA-A2*0201 (Homo sapiens, UniProt P04439, D140Y/D185E/D98H/E176V/E277Q/G131W/G231S/I119V/I121R/I166T/I218V/L300P/L318F/N151K/N90K/P208A/P217A/Q86G/Q94H/R138H/R169H/T345S); assay type: cell-based; conditions: peptide at 100, 10 and 1 μM; compared with positive control influenza M1 peptide; three independent experiments
IFN-γ [4] = assay: IFN-γ release by splenocyte (CTL) cultures, ELISA; assay type: cell-based, mice
Description: After at least 7 and not more than 10 days, immunised animals were killed, and the spleens recovered into transport media. Spleens were gently macerated and flushed by injecting 10 ml “CTL culture media” (RPMI 1640, 1% L-glutamine, 10% FCS (PAA labs), 20 mM Hepes, 50 μM 2-mercaptoethanol, 50 U/ml penicillin, 500 U/ml streptomycin and 0.25 μg/ml fungizone) under pressure through a fine bore hypodermic needle introduced through the spleen capsule, thus facilitating the isolation of splenocytes. The remaining tissue was diced and digested for 1 hour at 37° C. using an enzyme cocktail (IMDM containing […] 2-ME, 100 U/ml penicillin+1000 U/ml streptomycin, 8 mg/ml collagenase and 1% DNAse). The flushed and digested cell populations were washed and pooled, and then seeded into 15 wells of a 24 well-plate at 5×10^6 cells/well in 2 ml of media containing 20 μg peptide. The test peptide was added to 12 wells, while 3 wells received an irrelevant class-I peptide as a control. Splenocyte cultures were incubated for 5 days at 37° C.
as §2
Figures represent the ratio of IFN-γ released by splenocytes stimulated in vitro by PAP.135 to IFN-γ released by splenocytes stimulated in vitro by an irrelevant HLA-A2*0201 CTL epitope. The mean results of 10 experiments using splenocytes derived from PAP.135-immunised mice are given, and 1 in which splenocytes derived from non-immunised (naive mice) were used.

LNCaP cells = assay: 51Chromium cytotoxicity assay of splenocytes from PAP.135 immunised mice against LNCaP cells; assay type: cell-based, human; conditions: LNCaP express HLA-A2 and PAP
Description: (c): Cytotoxicity against LNCaP cells by splenocytes derived from PAP.135 immunised mice. Results are representative of 10 mice and 2 individual experiments.
(§5) LNCaP is a human prostate cancer cell-line known to express HLA-A2 and PAP. Cells were propagated in RPMI 1640 media (GibcoBRL, UK) supplemented with 10% foetal calf serum (BioWhittaker, Belgium), 100 U/ml penicillin with 100 μg/ml streptomycin (GibcoBRL, UK), 5 ng/ml hydrocortisone and 5 ng/ml testosterone (Sigma, USA). […] Cells were grown in suspension in tissue culture flasks containing RPMI 1640 (GibcoBRL, UK) with 10% foetal calf serum (FCS) (BioWhittaker, Belgium) and 1% L-glutamine supplement (GibcoBRL, UK).
Target cells were pulsed overnight with test peptide or an irrelevant HLA-A2 binding epitope and labelled for 1 hour with 1.85 MBq ^51Chromium. For cytotoxicity assays involving tumour cell-lines, cells were treated with 100 U/ml IFN-γ for 24 hours prior to ^51Chromium labelling. Target cells were washed and allowed to stand in CTL media for 1 hour before washing again. […] HLA-A2 dependence was determined by the addition of anti-HLA-A2 antibody (Serotec, UK) to some wells. […] Supernatants were harvested and analysed using a Top Count™ gamma counter (Can berra-Packard, USA). Specific lysis was determined as follows: […]

LCL cells = assay: 51Chromium cytotoxicity assay of splenocytes from PAP.135 immunised mice against LCL cells; assay type: cell-based, human; conditions: LCL express HLA-A2 but not PAP
Description: as §5
Target cells were pulsed overnight with test peptide or an irrelevant HLA-A2 binding epitope and labelled for 1 hour with 1.85 MBq ^51Chromium. For cytotoxicity assays involving tumour cell-lines, cells were treated with 100 U/ml IFN-γ for 24 hours prior to ^51Chromium labelling. Target cells were washed and allowed to stand in CTL media for 1 hour before washing again. Target cells and effector CTLs were co-incubated at various ratios in 96-well plates in a final volume of 200 μl for 4 hours at 37° C. HLA-A2 dependence was determined by the addition of anti-HLA-A2 antibody (Serotec, UK) to some wells. Maximum and spontaneous release of ^51Chromium was ascertained by incubating target cells with 2% SDS or media alone, respectively. Supernatants were harvested and analysed using a Top Count™ gamma counter (Can berra-Packard, USA). Specific lysis was determined as follows: […]

| Sequence | IFN-γ production, ELISPOT (IFN-γ [1]) | IFN-γ or IL-50 (cytokine) production of splenocytes (IFN-γ [2]) | number of HLA-DR1 mice whose splenocytes demonstrated specific proliferation (HLA-DRβ1*0101) | proliferative response to peptide-pulsed BM-DC (HLA-DRβ1*0401; 7 days in vitro stimulation, CD8+ T cells removed, rested 7 days) | effect of anti-HLA-DR antibody (L243) on proliferation (HLA-DRβ1*0401; not blocked by isotype control) | proliferation of splenocytes from immunised HLA-DR4 mice (HLA-DRβ1*0401; re-stimulated in vitro with peptide for 5 days) | number of HLA-DR4 mice whose splenocytes demonstrated specific proliferation (HLA-DRβ1*0401; responding/total mice, after re-stimulation in vitro with relevant peptide) | IFN-γ production by splenocytes (IFN-γ [3]) | inhibition of peptide specific lysis by HLA-A2 blocking antibody (RMAS-HLA-A2 cells; PAP.135-pulsed targets, splenocytes from PAP.135 immunised mice, two separate experiments) | lysis of PAP.135 pulsed RMAS-HLA-A2 cells (RMAS-HLA-A2 cells; splenocytes from PAP.135 immunised mice) | % cytoxicity at 50:1 ratio RMAS + irrel. (RMAS-HLA-A2 cells; splenocytes from PAP.135-immunised mice, 50:1) | % cytoxicity at 50:1 ratio RMAS + PAP.135 (RMAS-HLA-A2 cells; splenocytes from naïve (non-immunised) mouse stimulated with PAP.135 in vitro, 50:1) [%] | % cytoxicity at 50:1 ratio RMAS + irrel. (RMAS-HLA-A2 cells; splenocytes from naïve (non-immunised) mouse, 50:1) [%] | lysis of PAP.135 pulsed RMAS-HLA-A2 cells (RMAS-HLA-A2 cells; splenocytes from non-immunised (naïve) mice stimulated by PAP.135 in vitro) | binding to HLA-A2 (T2 cells) (HLA-A2*0201) | IFN-γ release by splenocytes stimulated in vitro (IFN-γ [4]; PAP.135-immunised mice, versus irrelevant epitope, day 5) | IFN-γ release by splenocytes stimulated in vitro (IFN-γ [4]; non-immunised (naïve) mice) | IFN-γ release (PAP.135:irrel.) (IFN-γ [4]; ratio, splenocytes from naïve (non-immunised) mouse) | lysis of LNCaP cells (LNCaP cells) | lysis of LCL cells (LCL cells) |
| --- | --- | --- | --- | --- | --- | --- | --- | --- | --- | --- | --- | --- | --- | --- | --- | --- | --- | --- | --- | --- |
| CPRFQELESETLKSE (listed as Homo sapiens) [PAP.161] | high amount of IFN-γ in peptide specific manner; also recorded: producing IFN-γ | no production of cytokines could be detected in high enough levels | 3 out of 6 and 3/6 | Significant proliferation; also recorded: consistently confirmed; also recorded: responded specifically | blocked in the presence of HLA-DR antibody; also recorded: blocked by the addition of L243 antibody; also recorded: inhibited by the addition of L243 antibody; also recorded: blocked by the presence of L243 antibody | Specific proliferation | 6 out of 8 and 4/6 | produced in large quantities | – | – | – | – | – | – | – | – | – | – | – | – |
| ILLWQPIPV (listed as Homo sapiens) [PAP.135] | – | – | – | – | – | – | – | – | approximately 80% | lysed RMAS-HLA-A2 cells, pulsed with PAP.135 in a dose dependent manner; also recorded: highly cytotoxic | 2% and 7% and 9% and 4% and 1% and 5% and 3% | 13 | 11 | failed to demonstrate cytotoxicity; also recorded: unable to lyse target cells | strong binding; also recorded: strongest HLA-A2 binding; also recorded: higher affinity to T2 cells | significantly more IFN-γ; also recorded: significantly upregulated | independent of the peptide used for in vitro stimulation | 1.1 | dose-dependent lysis; also recorded: highly cytotoxic | not susceptible to lysis |
